{"source": "patent US20140249143A1", "about": "“Compounds And Methods For Enhancing Innate Immune Responses” (GlaxoSmithKline LLC, priority 2011, published 2014)", "format_in_all_cases": "cell-based", "key": {"[1]": {"system": "HCV genotype 1a subgenomic replicon", "experiment": "Anti-Hepatitis C replicon assay, genotype 1a (luciferase)", "conditions": "Hepatitis C virus; luciferase activity measured 48 hours later; read-out: HCV Genotype 1A Replicon pEC50 (converted)", "how_it_was_run": "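The 1b line is ET cells carrying the I389luc-ubi-neo/NS3-3′/ET replicon with adaptive mutations E1202G, T1280I and K1846T; the 1a line is an Apath replicon line modified with firefly luciferase. Cells were exposed 48 h to compound (final 0.03 pM–50 μM, 0.5-1% DMSO), read by Steady-Glo luciferase, and IC50 came from 10-point four-parameter logistic fits; cytotoxicity was read by CellTiter-Glo.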"}, "STAT1 phosphorylation": {"system": "STAT1 phosphorylation", "experiment": "STAT1 phosphorylation immunoblot in HCV replicon cells", "procedure": "IFNα (100 U/ml) and DMSO were included as controls. The total cell lysates were analyzed on a 4-20% SDS-PAGE gradient gel and followed by immunoblotting using anti-phopho STAT1 antibody (Cell Signaling). The level of actin was monitored as a loading control. The bands were visualized by the alkaline phosphatase activity conjugated with the secondary antibody (Promega) using ProtoBlot II AP System™ (Promega)."}, "[2]": {"system": "ISG56 (Interferon-Stimulated Gene 56) promoter ISRE", "experiment": "ISG56 luciferase reporter assay in HEK 293 cells", "conditions": "Homo sapiens, HEK293; HEK 293 reporter, 24 hours; 100% = small molecule control test compound; read-out: ISG56 (Average Max Response) %", "how_it_was_run": "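HEK 293 cells stably carrying a firefly luciferase reporter driven by the ISG56 promoter ISRE were incubated with compounds (11-point, 3-fold dilutions) for 24 h at 37 °C, 10,000 cells/well. Steady-Glo luminescence was normalized to DMSO and control-agonist wells, and pEC50 came from a four-parameter fit.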"}}, "data": [{"smiles": "FC(F)(F)c1cc(C(F)(F)F)c2ccc3nc(-c4nnco4)cn3c2n1", "note": "[Compound 1, 2-[2,4-bis(trifluoromethyl)imidazo[1,2-a]1,8-naphthyridin-8-yl]-1,3,4-oxadiazole]", "values": [{"measurement": "EC50", "setting": "[1]", "result": 50.1, "unit": "nM"}, {"measurement": "time up to which phosphor-STAT1 status sustained", "setting": "STAT1 phosphorylation; 2 uM", "result": "up to 24 h"}, {"measurement": "STAT1 phosphorylation", "setting": "STAT1 phosphorylation; Example 1 2 uM, IFNα 100 U/ml, 1 h, 6 h, 24 h", "result": "induced STAT1 phosphorylation"}, {"measurement": "Emax", "setting": "[2]", "result": 302, "unit": "%"}]}]}
